Target: T1, α-mannosidase from Jack Bean (Canavalia ensiformis, UniProt C0HJB3)
T1 construct: purchased M7257
Assay: α-mannosidase activity assay
Type: biochemical
Settings: 400 μM
Procedure: a-mannosidase activity was measured using substrate p-nitrophenyl α-mannopyranoside (1 mM). Enzyme from Jack Bean (M7257) (final concentration of 0.077 U) was incubated at 37° C. in a final volume of 50 μl of 50 mM potassium phosphate buffer, pH 7.5. α-glucosidase was assayed with substrate p-nitrophenyl a-glucoside (7 mM). Enzyme from Saccharomyces cerevisiae-type 1 (Sigma, G5003) (final concentration of 0.1 U) was incubated at 37° C. in a final volume of 50 μl of PBS, pH 7.5. β-Glucosidase was assayed with substrate 4-nitrophenyl β-D-glucopyranoside (Roche). Enzyme from almond (Sigma, G0395) (final concentration of 0.002 U) was incubated at 37° C. in a final volume of 50 μl of PBS, pH 7.5 […]. The incubation was stopped by addition of an equal volume of acid-based stop solution (R&D systems, 895032). Enzymatic activity was measured at 405 nm. α-glucosidase from Saccharomyces cerevisiae type I (G5003) with p-nitrophenyl α-D-glucopyranoside (Sigma, N1377) as the substrate.

T1 sequence (C0HJB3 whole entry): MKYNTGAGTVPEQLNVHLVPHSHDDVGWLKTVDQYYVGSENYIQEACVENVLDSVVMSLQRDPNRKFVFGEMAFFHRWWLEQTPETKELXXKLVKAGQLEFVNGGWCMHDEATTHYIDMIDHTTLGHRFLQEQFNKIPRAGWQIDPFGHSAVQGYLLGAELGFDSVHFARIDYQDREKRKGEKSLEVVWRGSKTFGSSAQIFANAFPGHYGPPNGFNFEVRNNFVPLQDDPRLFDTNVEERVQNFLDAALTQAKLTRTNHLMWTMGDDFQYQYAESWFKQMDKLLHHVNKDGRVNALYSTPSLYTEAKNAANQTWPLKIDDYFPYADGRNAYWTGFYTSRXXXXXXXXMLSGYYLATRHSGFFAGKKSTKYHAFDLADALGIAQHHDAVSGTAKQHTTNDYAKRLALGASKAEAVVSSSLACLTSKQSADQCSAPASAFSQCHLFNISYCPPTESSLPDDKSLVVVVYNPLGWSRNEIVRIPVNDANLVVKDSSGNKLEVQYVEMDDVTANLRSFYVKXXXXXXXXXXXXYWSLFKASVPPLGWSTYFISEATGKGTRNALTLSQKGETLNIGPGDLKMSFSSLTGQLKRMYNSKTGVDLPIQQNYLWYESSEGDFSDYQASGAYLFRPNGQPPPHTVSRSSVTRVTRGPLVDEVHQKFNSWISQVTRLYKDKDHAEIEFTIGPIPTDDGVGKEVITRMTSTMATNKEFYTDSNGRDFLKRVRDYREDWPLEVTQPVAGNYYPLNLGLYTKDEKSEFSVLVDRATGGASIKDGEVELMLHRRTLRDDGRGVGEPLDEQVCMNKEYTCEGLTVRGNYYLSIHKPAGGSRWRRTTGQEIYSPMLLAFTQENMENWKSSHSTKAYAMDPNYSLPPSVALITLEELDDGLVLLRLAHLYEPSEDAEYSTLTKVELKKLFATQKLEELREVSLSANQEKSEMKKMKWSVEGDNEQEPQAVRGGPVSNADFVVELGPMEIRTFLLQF

Structure (SMILES): N[C@H](C=O)[C@@H](O)[C@H](O)[C@H](O)CO [ManN, 2-Amino-2-deoxy-D-mannose]
- inhibitory activity on α-mannosidase: inhibitory activity

— patent US20250275993A1, “GLYCOSYLATION INHIBITORS AS THERAPEUTICS FOR STROKE” (The Regents of the University of California, priority 2022, published 2025)
